According to publication PMC11811597, “Phenomics‐Based Discovery of Novel Orthosteric Choline Kinase Inhibitors” (Angewandte Chemie (International Ed. in English), 2025):

Key:
U2OS cells = assay: Cell Painting Assay (CPA); assay type: cell-based, human
Description: The described assay follows closely the method described by Bray et al.[15] Initially, 5 µL U2OS medium were added to each well of a 384-well plate (Revvity Phenoplate 384).
Subsequently, U2OS cell were seeded with a density of 1600 cells per well in 20 µL medium. The plate was incubated for 10 min at the ambient temperature, followed by an additional 4 h incubation (37 °C, 5% CO2). Compound treatment was performed with the Echo 520 acoustic dispenser (Beckman-Coulter) followed by incubation for 20 h (37 °C, 5% CO2). Subsequently, mitochondria were stained with Mito Tracker Deep Red (Thermo Fisher Scientific, Cat. No. M22426). The Mito Tracker Deep Red stock solution (1 mM) was diluted to a final concentration of 100 nM in prewarmed medium. The medium was removed from the plate leaving 10 µL residual volume and 25 µL of the Mito Tracker solution were added to each well. The plate was incubated for 30 min in darkness (37 °C, 5% CO2). To fix the cells […] of 18.5 % formaldehyde in PBS were added, resulting in a final formaldehyde concentration of […]. Subsequently, the plate was incubated for another 20 min in darkness (RT) and washed three times with 70 µL of PBS. (Agilent Washer Elx405). Cells were permeabilized by addition of 25 µL 0.1% Triton X-100 to each well, followed by 15 min incubation (RT) in darkness. The cells were washed three times with PBS leaving a final volume of 10 µL. To each well 25 µL of a staining solution were added, which contains 1% BSA, 5 µL/ml Phalloidin (Alexa594 conjugate, Thermo Fisher Scientific, A12381), 25 µg/ml Concanavalin A (Alexa488 conjugate, Thermo Fisher Scientific, Cat. No.
(Thermo Fisher Scientific, Cat. No. W11262) and 1.5 µM SYTO 14 solution (Thermo Fisher Scientific, Cat. No. S7576). The plate is incubated for 30 min (RT) in darkness and washed three times with 70 µl
PBS. After the final washing step, the PBS was not aspirated. The plates were sealed and centrifuged […]
The plates were prepared in triplicates with shifted layouts to reduce plate effects and imaged using a Micro XL High-Content Screening System (Molecular Devices) in 5 channels (DAPI: Ex350-400/ […]
The generated images were processed with the CellProfiler package (https://cellprofiler.org/, version 3.0.0) on a computing cluster of the Max Planck Society to extract 1716 cell features per microscope site. The data was then further aggregated as medians per well (9 sites -> 1 well), then over the three […]
Further analysis was performed with custom Python (https://www.python.org/) scripts using the Pandas (https://pandas.pydata.org/) and Dask (https://dask.org/) data processing libraries as well as the Scientific Python (https://scipy.org/) package (separate publication to follow).
From the total set of 1716 features, a subset of highly reproducible and robust features was determined using the procedure described by Woehrmann et al.[16] in the following way:
Two biological repeats of one plate containing reference compounds were analysed. For every feature, its full profile over each whole plate was calculated. If the profiles from the two repeats […]
set of 579 robust features out of the total of 1716 that was used for all further analyses.
The phenotypic profiles were compiled from the Z-scores of all individual cellular features, where the Z-score is a measure of how far away a data point is from a median value.
Specifically, Z-scores of test compounds were calculated relative to the Median of DMSO controls.
Thus, the Z-score of a test compound defines how many MADs (Median Absolute Deviations) the measured value is away from the Median of the controls as illustrated by the following formula:
z − score = […]
The phenotypic compound profile is then determined as the list of Z-scores of all features for one […]
(1 picture or pasted object on this page, not shown here)
In addition to the phenotypic profile, an induction value was determined for each compound as the […]
Induction [%] = number of features with abs. values > 3 […]

HNRNPD = molecular target: T1, HNRNPD (Homo sapiens, UniProt Q14103); assay: PISA thermal profiling, K562 cell lysates; assay type: binding; conditions: K562 lysate, 30 µM, 15 min, n=3
T1 construct: endogenous in cells; host or cells: K562 cell lysate
Description: (§1) Experiments were performed as described earlier with few modifications. In short, 3 replicates of intact HepG2 cells were treated with 30 µM UNC0638, […] or corresponding volume of DMSO in medium-free experimental buffer for 60 min at 37 °C with end-over-end rotation. For lysates: Washed K562 cells were resuspended in medium-free experimental buffer and lysed by three freeze-thaw cycles. Lysate was centrifugated 20,000 × g for 20 min at 4 °C to remove cell debris. The cleared lysate was treated with 30 µM UNC0638, UNC0373 or corresponding volume of DMSO for 15 min at RT with end-over-end rotation. Each treated cell suspension or lysate was divided into 12 aliquots and subjected to a 12-step heat gradient from 44 °C to 64 °C. All the temperature points were pooled together to form […] individual samples. Soluble fraction was separated from precipitated proteins […]
(§2) by centrifugation at 30,000 × g for 20 min at 4 °C. The soluble fractions were collected to fresh tubes and further processed to be analysed with mass spectrometry. Sample handling, TMT labelling, LC-MS/MS analysis, protein identification and data analysis was performed as described earlier.[12] […]
(§3) Figure S3: Western blot of elution fractions after chemical pulldown with UNC0965 in MCF7 cell extract pre-incubated with indicated compounds (20 μM) or DMSO.
(§4) Figure S4: PISA thermal profiling results in K562 cell lysates. A) Volcano plots of UNC0638 and […]
(§5) Dashed lines represent amplitude > 0.05, < - 0.05 and log10(adjusted p-values) > 2 (two-sided two sample t-test, Benjamini-Hochberg corrected, n = 3).
(§6) 6,924 proteins were identified. B) UNC0737 stabilises CHKA stronger than UNC0638. […]

R3HCC1L = molecular target: T2, R3HCC1L (Homo sapiens, UniProt Q7Z5L2); assay: PISA thermal profiling, K562 cell lysates; assay type: binding; conditions: K562 lysate, 30 µM, 15 min, n=3
T2 construct: endogenous in cells; host or cells: K562 cell lysate
Description: as §1, §2, §3, §4, §5, §6

RBBP8NL = molecular target: T3, RBBP8NL (Homo sapiens, UniProt Q8NC74); assay: PISA thermal profiling, K562 cell lysates; assay type: binding; conditions: K562 lysate, 30 µM, 15 min, n=3
T3 construct: endogenous in cells; host or cells: K562 cell lysate
Description: as §1, §2, §3, §4, §5, §6

T2 sequence (Q7Z5L2 1-184 isoform Q7Z5L2-3): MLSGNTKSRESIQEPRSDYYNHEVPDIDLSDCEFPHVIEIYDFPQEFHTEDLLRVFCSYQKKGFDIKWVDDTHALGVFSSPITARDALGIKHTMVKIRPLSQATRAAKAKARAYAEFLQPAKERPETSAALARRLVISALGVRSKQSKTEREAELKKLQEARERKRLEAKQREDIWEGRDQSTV
T1 sequence (Q14103 whole entry): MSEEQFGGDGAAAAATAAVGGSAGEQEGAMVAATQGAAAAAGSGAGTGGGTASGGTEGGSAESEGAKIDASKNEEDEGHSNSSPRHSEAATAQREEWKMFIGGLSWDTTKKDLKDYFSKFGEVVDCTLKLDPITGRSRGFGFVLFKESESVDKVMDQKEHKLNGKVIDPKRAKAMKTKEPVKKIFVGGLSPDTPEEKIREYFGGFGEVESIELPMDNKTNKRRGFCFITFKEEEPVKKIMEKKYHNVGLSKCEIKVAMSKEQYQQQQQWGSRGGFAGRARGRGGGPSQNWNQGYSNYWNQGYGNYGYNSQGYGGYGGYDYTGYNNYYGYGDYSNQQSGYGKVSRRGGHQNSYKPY
T3 sequence (Q8NC74 whole entry): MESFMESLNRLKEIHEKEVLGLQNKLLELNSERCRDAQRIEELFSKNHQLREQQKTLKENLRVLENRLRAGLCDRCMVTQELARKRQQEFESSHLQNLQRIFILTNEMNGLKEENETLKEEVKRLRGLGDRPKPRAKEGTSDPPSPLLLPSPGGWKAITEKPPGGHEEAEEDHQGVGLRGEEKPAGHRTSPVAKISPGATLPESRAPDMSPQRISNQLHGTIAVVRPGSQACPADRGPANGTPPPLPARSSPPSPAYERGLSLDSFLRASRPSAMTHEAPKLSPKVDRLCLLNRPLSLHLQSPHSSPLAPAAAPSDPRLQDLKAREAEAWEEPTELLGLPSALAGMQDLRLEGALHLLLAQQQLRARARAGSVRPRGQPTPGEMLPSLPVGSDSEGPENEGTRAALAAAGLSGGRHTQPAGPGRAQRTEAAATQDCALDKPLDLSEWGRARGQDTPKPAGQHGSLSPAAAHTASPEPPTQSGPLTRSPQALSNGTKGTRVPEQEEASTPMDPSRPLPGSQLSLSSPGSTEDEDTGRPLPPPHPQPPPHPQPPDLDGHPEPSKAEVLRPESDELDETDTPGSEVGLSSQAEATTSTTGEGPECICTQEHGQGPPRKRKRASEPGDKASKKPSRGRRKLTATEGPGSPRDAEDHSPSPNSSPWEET

Row | SMILES | biosimilarity of UNC0638 and UNC0737 profiles (clustered together) (U2OS cells) [%] | Biol.Sim. (%) (U2OS cells; Conc 3.00 μM) | Cell Count (%) (U2OS cells; Conc 3.00 μM) | Ind. (%) (% of parameters with significant changes) (U2OS cells; Conc 3.00 μM) | Cell Count (%) (U2OS cells; Conc 5.00 μM) | Ind. (%) (% of parameters with significant changes) (U2OS cells; Conc 5.00 μM) | Biol.Sim. (%) (U2OS cells; Conc 5.00 μM, morphological fingerprint similarity (no value printed for UNC0737 5 μM)) | effect_CETSA_Lysate (PISA amplitude), HNRNPD (HNRNPD) | effect_CETSA_Lysate (PISA amplitude), R3HCC1L (R3HCC1L) | effect_CETSA_Lysate (PISA amplitude), RBBP8NL (RBBP8NL)
1 | COc1cc2c(NC3CCN(C(C)C)CC3)nc(C3CCCCC3)nc2cc1OCCCN1CCCC1 [UNC0638] | > 90 | 91 | 93 | 73 | 86 | 83 | 96 | 0.387 | 0.239 | 0.217
2 | COc1cc2c(N(C)C3CCN(C(C)C)CC3)nc(C3CCCCC3)nc2cc1OCCCN1CCCC1 [UNC0737] | > 90 | 94 | 86 | 83 | 90 | 86 |  | 0.605 | 0.415 | 0.393
